We go through 12 compounds from paper PMC7822816, “Halo-fluorescein for photodynamic bacteria inactivation in extremely acidic conditions” (Nature Communications, 2021).

The subject of one series is C. albicans. Put plainly: Fresh food preservation (infected tomato model). The arrangement: species or system Candida albicans. Particulars: 10 μM in pH 3.0 PBS, LED 35 mW/cm^2 10 min (620 nm Zn-tpp, 660 nm Ce 6). From the text: Besides fruit juices, the potential of TIF for photo-assisted fresh food preservation was also investigated with tomato as the model (pH 3.0). […] Therefore, the food additive TIF is also promising for fresh food preservation.
Tomatoes were selected as the model for photo-assisted fresh food preservation. All the tomatoes were divided into six groups, and made a wound of ~7 cm^2 by hot water. […] Afterward, the tomatoes were stored at room temperature and then subjected to repeated irradiation at day 2. The total viable counts of bacteria on the infected tomatoes were measured in day 3.

Series [1] deals with C. albicans infection of oral mucosa. Conditions: photosensitizer + light (510 nm TIF, 660 nm Ce 6 and Zn-tpp).
Description: The extremely acidic environment was constructed through changing the pH of the mucosa and diluting PSs in pH 3.0 PBS buffer. […] During the investigations, the infected ICR mice were divided into six groups (six mice per group): blank, light, TIF, TIF + light, Ce 6 + light, and Zn-tpp + light. For comparison and better visualization of the infection, a normal group (no infection) was also included.
To construct the oral mucosal infection model, cotton balls immersed in solutions containing 10^8 CFU/mL of C. albicans were placed in the mouth of mice for 75 min. At day 1 and day 3, 50 μL pH 3.0 PBS and PSs (20 μM, diluted by pH 3.0 PBS) were added to oral mucosa, and treated with different lasers (510 nm for TIF, 660 nm for Ce 6 and Zn-tpp, 50 mW/cm^2) for 10 min.
To investigate the therapy effect, photographs, colonies, weights, and pathology index of mice were taken every other day. After day 3, one mouse in each group was sacrificed, and the tissues of oral mucosa were harvested for hematoxylin and eosin (H&E) staining. The pathology index was evaluated based on the standard given in Supplementary Table 10.
Series [2] is described as follows: pH titration of halogenated fluorescein (pH0.5). The series is classed as physicochemical. Particulars: for lowering of pH0.5 compared with fluorescein: difference to fluorescein (6.09). As for the experimental part:
The pH0.5 values (the pH value when the open form reduce to the half of the maximum) of various fluorescein derivatives were determined experimentally through pH titration (Supplementary Figs. 6–16).
The pH of the solutions were adjusted through varying the ratios of citric acid and Na2HPO4 (pH 2.2–8.0), and further acidity was adjusted with concentrated HCl or 1 M NaOH. The absorption and fluorescence spectra of the resultant solutions were then collected.
Section S5. pH-dependent Properties of the Halogenated Fluoresceins.
S5.1 pH titration of halogenated fluorescein
Fluorescein derivatives (Supplementary Table 1) were dissolved in DMSO to obtain 1 mM stock solutions and then diluted with citric acid-Na2HPO4 buffer (100 mM) to 10
μM. The pH of the solutions were adjusted through varying the ratios of citric acid and Na2HPO4 (pH 2.2-8.0), and further acidity was adjusted with concentrated HCl or 1 M
NaOH. The absorption and fluorescence spectra of the resultant solutions were then

Series [3] is described as follows: Photophysical characterization (absorption, fluorescence, phosphorescence, lifetime). In kind it is physicochemical. Particulars: for ΦFL: 5 μM in 0.5% (v/v) DMSO, diluted with 0.1 M NaOH; for λAbs / λPh / λem: 2% DMSO; for τfl: fluorescence lifetime, 5 μM in 0.5% DMSO, 0.1 M NaOH. As for the experimental part: Section S6. Photophysical Characterizations
S6.1 Absorption, fluorescence, and phosphorescence spectra
Fluorescein and its derivatives were dissolved in DMSO to obtain 1 mM stock solutions.
The stock solutions were diluted with deionized water to 10 μM.
Supplementary Figure 20. The absorption (black), fluorescence (blue), and phosphorescence (red, slit 25 nm) spectra of FL.
Supplementary Figure 21. The absorption (black), fluorescence (blue), and phosphorescence (red, slit 25 nm) spectra of DCF.
S6.2 Fluorescence lifetime
Fluorescence decay samples was recorded with Fluorolog-3 (Horiba). The solution of samples were prepared to be 5 μM in 0.5% (v/v) DMSO, and diluted with 0.1M NaOH.
S6.5 Photophysical properties of the halogenated-fluorescein derivatives
Supplementary Table 4. Photophysical Properties of Halogenated-fluorescein derivatives. […]
a Measured in 2% DMSO; b Measured in 2% DMSO citric acid -disodium hydrogen phosphate buffer; c Measured in a mixed solvent of D 2O and CH3CN (VD2O:
VCH3CN = 1: 15); d The solution of samples were prepared to be 5 μM in 0.5% (v/v) DMSO, and diluted with 0.1 M NaOH.

Series [4] is described as follows: Relative singlet oxygen quantum yield (1O2 phosphorescence, Rose Bengal standard). Details: key: relative to Rose Bengal standard (ΦΔ = 0.75). Conditions: for Singlet oxygen yield (ΦΔ): mixed solvent of D2O and CH3CN (1:15) (Supplementary Table 4); for singlet oxygen quantum yield (ΦΔ): pH = 10 media, relative, RB as the standard. The series is classed as physicochemical. The protocol:
To permit the open-form structure of all fluorescein derivatives, all the measurements were carried out in pH = 10 media.
The singlet oxygen quantum yields (ΦΔ) of all fluorescein-based PSs were evaluated with Rose Bengal as the standard (ΦΔ = 0.75):1 ΦΔ=AsAbsorption/As(Emission)×ARB(Emission)/ARB(Absorption)×0.75 Here, the area of absorption (RB and PSs) was collected with an integrating sphere (λex = 510 nm), while the area of emission was obtained from the characterized 1270 nm ^1O2 phosphorescence emission. For collection of such emission, CH3CN and D2O mixed solvent (v (D2O): v (CH3CN) = 1:15, pH = 9.0, adjusted with 0.001 M NaOH) was used, since H2O can severely quench the singlet oxygen luminescence. For all the measurements, the concentrations of the PSs were set at 10 μM.
S6.3 Relative singlet oxygen quantum yield
The singlet O2 quantum yield of photosensitizers were measured by Fluolog-3 spectrofluorometer with an integration sphere (IS80, Labsphere) and NIR detector (Hamamatsu H-10330) in this work.
For better collection of the characterized singlet oxygen phosphorescence emission (1275 nm), CH3CN and D2O mixed solvent was used (H2O can severely quench the singlet oxygen luminescence). The 10 mM stock solutions in CH3CN and D2O mixed solvent (VCH3CN:VD2O = 15:1) were first prepared. The stock solutions were diluted to 10 μM, and the final volume was 2 mL. In addition, the CH3CN and D2O mixed solvent as blank was also prepared.
1. Turn on the instrument and the start software, the light source is xenon lamp.
2. From the experiment menu, selected spectra, emission. The 1O2 emission phosphorescence spectra are first measured.
3. The parameters setting are listed: a. Excitation wavelength: 510 nm

For the next series, the system named is MRSA. Particulars: dose 100 mg/L, 360 J/cm2; cited from earlier work.
The test system of another series is L. plantarum. Put plainly: Photodynamic inhibition of L. plantarum (coating plate method). In kind it is cell-based, Lactobacillus plantarum. Conditions: 0.5 μM photosensitizer, irradiated 10 min, pH 2.5; 620 nm red LED for Zn-tpp and PC.
A further series relates to E.coli. Conditions: dose 0.5 μM, 20 min; cited from earlier work.
The mark [5] stands for this setting: 2% DMSO citric acid-disodium hydrogen phosphate buffer (Supplementary Table 4).
Where [6] appears, read: pH value when the open form reduces to half of the maximum, pH titration, 10 μM, citric acid–Na2HPO4 buffer.

Where “and” joins values, the source holds several entries; their conditions need not be identical. Identical values can stand only once.

In the case of `C=Cc1c(C)c2cc3nc(c(CC(=O)O)c4[nH]c(cc5nc(cc1[nH]2)C(C)=C5CC)c(C)c4C(=O)O)[C@@H](CCC(=O)O)[C@@H]3C` [Ce 6, reference compound], in the series on C. albicans, the “wound infection of tomatoes, with light” value is “different magnitudes of wound infection”. Also, the “H&E staining of tongue sections, with light” value in series [1] was “large amounts of inflammation infiltration”.
As for `O=C(O)c1ccccc1-c1c2ccc(=O)c(Br)c-2oc2c(Br)c(O)ccc12` [DBF, Dibromo-fluorescein], the pH0.5 in series [2] (setting [5]) was 4.63. Besides, the pH0.5 in series [2] (setting [6]) is 4.63 and 4.52. In series [3], this compound came in with a kdec of 5.03e+08 s⁻¹, a knr of 3.5e+08 s⁻¹, a krad of 1.52e+08 s⁻¹ and a ΦFL of 0.303. In series [3], this compound returned a λAbs of 504 nm, a λPh of 685 nm, a λem of 531 nm and a τfl of 1.99 ns. In addition, in series [4], the “Singlet oxygen yield (ΦΔ)” value is given as 0.26 and the “singlet oxygen quantum yield (ΦΔ)” value came out at 0.19.
Take `O=C(O)c1ccccc1-c1c2ccc(=O)c(I)c-2oc2c(I)c(O)ccc12` [DIF, Diiodo-fluorescein]: in series [2] (setting [5]), the pH0.5 is given as 4.13. In series [2] (setting [6]), this compound came in with a pH0.5 of 4.13. In series [3], this compound registered a kdec of 1e+11 s⁻¹, a knr of 9.99e+10 s⁻¹, a krad of 1e+08 s⁻¹ and a ΦFL of 0.001. In addition, in series [3], the λAbs is given as 527 nm, the λPh worked out at 699 nm, the λem was 549 nm and the τfl is listed as 0.01 ns. The “singlet oxygen quantum yield (ΦΔ)” value in series [4] came out at 0.63.
Consider `CN(C)c1ccc2nc3ccc(=[N+](C)C)cc-3sc2c1` [Methylene Blue], for which the Inhibition ratio with MRSA was 4.7 log10.
`O=C(O)c1c(Cl)c(Cl)c(Cl)c(Cl)c1-c1c2cc(Cl)c(=O)c(Cl)c-2oc2c(Cl)c(O)c(Cl)cc12` [OCF, Octachloro-fluorescein] returned a pH0.5 in series [2] (setting [5]) of 3.41. Besides, the pH0.5 in series [2] (setting [6]) turned out to be 3.41. In series [3], this compound displayed a kdec of 2.31e+08 s⁻¹, a knr of 9.3e+07 s⁻¹, a krad of 1.38e+08 s⁻¹ and a ΦFL of 0.597. In series [3], this compound displayed a λAbs of 537 nm, a λPh of 676 nm, a λem of 556 nm and a τfl of 4.33 ns. In addition, in series [4], the “Singlet oxygen yield (ΦΔ)” value worked out at 0.11 and the “singlet oxygen quantum yield (ΦΔ)” value is 0.11.
On to `O=C(O)c1c(Cl)c(Cl)c(Cl)c(Cl)c1-c1c2cc(Br)c(=O)c(Br)c-2oc2c(Br)c(O)c(Br)cc12` [PB, Tetrabromo-tetrachloro-fluorescein], for which the pH0.5 in series [2] (setting [5]) was found to be 3.45. In addition, the pH0.5 in series [2] (setting [6]) is on record as 3.45. In series [3], this compound registered a kdec of 8e+08 s⁻¹, a knr of 6.64e+08 s⁻¹, a krad of 1.36e+08 s⁻¹ and a ΦFL of 0.170. In series [3], this compound came in with a λAbs of 539 nm, a λPh of 730 nm, a λem of 560 nm and a τfl of 1.25 ns. Further, the “singlet oxygen quantum yield (ΦΔ)” value in series [4] amounted to 0.26.
The compound `O=C(O)c1ccccc1-c1c2cc(Cl)c(=O)c(Cl)c-2oc2c(Cl)c(O)c(Cl)cc12` [TCF-1, Tetrachloro-fluorescein-1] registered a pH0.5 in series [2] (setting [5]) of 2.79. Moreover, the “lowering of pH0.5 compared with fluorescein” value in series [2] amounted to 3.30 units. Also, the pH0.5 in series [2] (setting [6]) was 2.79. In series [3], this compound showed a kdec of 2.44e+08 s⁻¹, a knr of 7.8e+07 s⁻¹, a krad of 1.66e+08 s⁻¹ and a ΦFL of 0.680. In addition, in series [3], the λAbs is 515 nm, the λPh is given as 655 nm, the λem came to 536 nm and the τfl is recorded as 4.09 ns. Further, in series [4], the “Singlet oxygen yield (ΦΔ)” value came to 0.06 and the “singlet oxygen quantum yield (ΦΔ)” value is given as 0.06.
As for `O=C(O)c1c(Cl)c(Cl)c(Cl)c(Cl)c1-c1c2ccc(=O)cc-2oc2cc(O)ccc12` [TCF-2, Tetrachloro-fluorescein-2], the pH0.5 in series [2] (setting [5]) is recorded as 5.89. Further, in series [2], the “lowering of pH0.5 compared with fluorescein” value was found to be 0.16 units. Moreover, the pH0.5 in series [2] (setting [6]) was 5.89 and 5.93. In series [3], this compound displayed a kdec of 2.05e+08 s⁻¹, a knr of 3e+07 s⁻¹, a krad of 1.75e+08 s⁻¹ and a ΦFL of 0.854. In series [3], this compound returned a λAbs of 511 nm, a λPh of 637 nm, a λem of 531 nm and a τfl of 4.87 ns. Further, in series [4], the “singlet oxygen quantum yield (ΦΔ)” value was found to be 0.05.
In the case of `C1=Cc2nc1c(-c1ccccc1)c1ccc([n-]1)c(-c1ccccc1)c1nc(c(-c3ccccc3)c3ccc([n-]3)c2-c2ccccc2)C=C1.[Zn+2]` [Zn-tpp, Zinc(II) tetraphenylporphyrin, reference compound], the “wound infection of tomatoes, with light” value with C. albicans was “different magnitudes of wound infection”. In series [1], the “H&E staining of tongue sections, with light” value is given as “large amounts of inflammation infiltration”. For the same compound, the “antimicrobial activity (survival rate of L. plantarum)” value with L. plantarum was “no obvious antimicrobial activity”.
In series [2] (setting [5]), Dichloro-fluorescein [DCF] returned a pH0.5 of 4.77. Also, in series [2] (setting [6]), the pH0.5 turned out to be 4.77. Further, in series [3], the kdec came to 2.31e+08 s⁻¹, the knr amounted to 7.7e+07 s⁻¹, the krad stood at 1.54e+08 s⁻¹ and the ΦFL came to 0.668. Moreover, in series [3], the λAbs was found to be 502 nm, the λPh was 645 nm, the λem worked out at 529 nm and the τfl amounted to 4.33 ns. Besides, the “singlet oxygen quantum yield (ΦΔ)” value in series [4] is listed as 0.04.
Fluorescein returned a pH0.5 in series [2] (setting [5]) of 6.09. Also, the pH0.5 in series [2] (setting [6]) was found to be 6.09. In addition, in series [3], the kdec was 2.18e+08 s⁻¹, the knr came out at 3.1e+07 s⁻¹, the krad is 1.87e+08 s⁻¹ and the ΦFL was determined as 0.858. Moreover, in series [3], the λAbs came out at 491 nm, the λPh worked out at 638 nm, the λem is listed as 515 nm and the τfl is recorded as 4.58 ns. Moreover, the “singlet oxygen quantum yield (ΦΔ)” value in series [4] is given as 0.01.
Turning to [Ru(bpy)2(dppn)]2+, in the series with E.coli, the Inhibition ratio is given as 5.4 log10.
